pIC50: −log10 of the molar value.
Assays:
ISG expression = ISG expression enhancement; assay type: cell-based
[1] = tested on: Murine Encephalomyocarditis virus (EMCV); assay: EMCV antiviral assay (MTS cell viability); assay type: cell-based; details: Huh7 cells, EMCV 250 pfu, 18 h post-infection
HCV genotype 2A = assay: HCV focus-forming assay (FFA); assay type: cell-based; details: Hepatitis C virus
Procedure: (§1) Chemical analogs of KIN500 are tested for in vitro antiviral activity against HCV genotype 2A and influenza A virus (A/WSN/33). Viral protein and RNA levels are assessed following drug treatment using the assays described above.

[2] = tested on: influenza A virus (A/WSN/33); assay: microbe, parasite or virus in culture; assay type: cell-based
Procedure: as §1

For `COc1ccc(NC(=O)Cn2c(=O)n(Cc3ccco3)c(=O)c3sc4ccccc4c32)c(OC)c1` [KIN500, 2-[3-(furan-2-ylmethyl)-2,4-dioxo-3,4-dihydro[1]benzothieno[3,2-d]pyrimidin-1(2H)-yl]-N-(2,4-methoxyphenyl)acetamide], the “enhancement of ISG expression” value (ISG expression) was 18 fold, the CC50 (in vitro) was over 50 µM and the Cell viability post-infection ([1]; 5 μM) was about 0.75. For the same compound, the Cell viability post-infection ([1]; 10 μM) was about 1.0, the Cell viability post-infection ([1]; 20 μM) was about 1.05 and the pIC50 (HCV genotype 2A) was 4.72. The “Therapeutic index (TI) (CC50/IC50)” value ([2]; CC50/IC50) was 11 and the pIC50 ([2]; Influenza A virus, WSN, read-out: Influenza nucleoprotein (NP) ELISA (IC50)) was 5.34.

Source: patent publication US8927561B2, “Pyrimidinedione anti-viral compounds” (Kineta, Inc., priority 2010, dated 2015)
